From the NIST ThermoML archive (doi:10.1016/j.jct.2013.01.005)
± gives the expanded uncertainty stated by the source.

Experiments:
[1] = 101.33 kPa, Liquid, Vibrating tube method
[2] = activity coefficient (dimensionless); of the first substance listed, at infinite dilution; xn = mol fraction of the nth substance listed; details: 101 kPa, Liquid, Chromatography, x1 = 0

SMILES | mass density ([1]; 293.15 K) [kg/m3] | mass density ([1]; 298.15 K) [kg/m3] | mass density ([1]; 303.15 K) [kg/m3] | mass density ([1]; 308.15 K) [kg/m3] | mass density ([1]; 313.15 K) [kg/m3] | mass density ([1]; 318.15 K) [kg/m3] | mass density ([1]; 323.15 K) [kg/m3] | mass density ([1]; 328.15 K) [kg/m3] | mass density ([1]; 333.15 K) [kg/m3] | mass density ([1]; 338.15 K) [kg/m3] | mass density ([1]; 343.15 K) [kg/m3] | mass density ([1]; 348.15 K) [kg/m3] | mass density ([1]; 353.15 K) [kg/m3] | mass density ([1]; 358.15 K) [kg/m3] | activity coefficient ([2]; 308.15 K) | activity coefficient ([2]; 318.15 K) | activity coefficient ([2]; 328.15 K) | activity coefficient ([2]; 338.15 K) | activity coefficient ([2]; 348.15 K) | activity coefficient ([2]; 358.15 K)
CCCCCC[N+]1(C)CCCCC1.O=S(=O)([N-]S(=O)(=O)C(F)(F)F)C(F)(F)F | 1329.53 ± 0.18 | 1325.41 ± 0.18 | 1321.3 ± 0.18 | 1317.2 ± 0.18 | 1313.11 ± 0.18 | 1309.04 ± 0.18 | 1304.98 ± 0.18 | 1300.93 ± 0.18 | 1296.9 ± 0.17 | 1292.88 ± 0.17 | 1288.87 ± 0.17 | 1284.87 ± 0.17 | 1280.88 ± 0.17 | 1276.91 ± 0.17 |  |  |  |  |  | 
CCCCC[N+]1(C)CCCCC1.O=S(=O)([N-]S(=O)(=O)C(F)(F)F)C(F)(F)F | 1354.47 ± 0.26 | 1350.13 ± 0.26 | 1345.85 ± 0.26 | 1341.7 ± 0.26 | 1337.54 ± 0.26 | 1333.36 ± 0.25 | 1329.2 ± 0.25 | 1325.05 ± 0.25 | 1320.89 ± 0.25 | 1316.75 ± 0.25 | 1312.6 ± 0.24 | 1308.46 ± 0.24 | 1304.36 ± 0.24 | 1300.26 ± 0.24 |  |  |  |  |  | 
Cc1ccccc1C [1,2-dimethylbenzene] + CCCCCC[N+]1(C)CCCCC1.O=S(=O)([N-]S(=O)(=O)C(F)(F)F)C(F)(F)F |  |  |  |  |  |  |  |  |  |  |  |  |  |  | 1.04 ± 0.07 | 1.08 ± 0.07 | 1.1 ± 0.07 | 1.13 ± 0.07 | 1.16 ± 0.07 | 1.18 ± 0.08
COC(C)(C)C [2-methoxy-2-methylpropane] + CCCCC[N+]1(C)CCCCC1.O=S(=O)([N-]S(=O)(=O)C(F)(F)F)C(F)(F)F |  |  |  |  |  |  |  |  |  |  |  |  |  |  | 1.81 ± 0.12 | 1.85 ± 0.12 | 1.86 ± 0.13 | 1.89 ± 0.13 | 1.94 ± 0.13 | 1.98 ± 0.13
CCCCCC [hexane] + CCCCC[N+]1(C)CCCCC1.O=S(=O)([N-]S(=O)(=O)C(F)(F)F)C(F)(F)F |  |  |  |  |  |  |  |  |  |  |  |  |  |  | 9.9 ± 0.68 | 9.5 ± 0.65 | 8.9 ± 0.61 | 8.45 ± 0.58 | 8.19 ± 0.56 | 7.92 ± 0.54
